Experimental data as given in patent publication US20250282746A1, “HALOGEN-SUBSTITUTED ISOINDOLINE COMPOUND AND USE THEREOF” (CHENGDU FENDI PHARMACEUTICAL CO., LTD., priority 2022, published 2025).
Like-named read-outs stand apart in the source and are kept apart here.

How the values were obtained:
MV-4-11 cells = assay: Antiproliferative activity against MV-4-11 cells (CellTiter-Glo, 72 h); format: cell-based; details: Homo sapiens, read-out: Antiproliferative activity IC50
Procedure: MV411 cells in the logarithmic growth phase were diluted in a medium (RPMI+10% FBS) and plated at 5,000 cells/well in 96-well whole black plates (WHB) with 50 μL/well. After plating, the plates were incubated in an incubator at 5% CO2 and 37° C. for 24 h before the compounds were added. The compounds were prepared into a 10 mM stock solution in DMSO and diluted in a culture medium to the desired concentrations (a final DMSO concentration of 0.2%). […] The plates were incubated at 5% CO2 and 37° C. for 72 h. After the incubation was complete, the plates were equilibrated at room temperature for 30 min. CellTiter-Glo® Reagent (Promega G7573) was added at 100 μL/well. The plates were shaken for 12 min on a microplate shaker. The luminescence value was measured at room temperature by the GloMax navigator (Promega GM2010).

GSPT1 protein = target: T1, GSPT1 protein (Homo sapiens, UniProt P15170); assay: Degradation of GSPT1 protein in NB-4 cells (Western blot); format: cell-based; details: read-out: GSPT1 degradation
T1 construct: The whole cell lysate was prepared using a RIPA lysis buffer; endogenous in cells; host or cells: NB-4 cells
T1 sequence (P15170 whole entry): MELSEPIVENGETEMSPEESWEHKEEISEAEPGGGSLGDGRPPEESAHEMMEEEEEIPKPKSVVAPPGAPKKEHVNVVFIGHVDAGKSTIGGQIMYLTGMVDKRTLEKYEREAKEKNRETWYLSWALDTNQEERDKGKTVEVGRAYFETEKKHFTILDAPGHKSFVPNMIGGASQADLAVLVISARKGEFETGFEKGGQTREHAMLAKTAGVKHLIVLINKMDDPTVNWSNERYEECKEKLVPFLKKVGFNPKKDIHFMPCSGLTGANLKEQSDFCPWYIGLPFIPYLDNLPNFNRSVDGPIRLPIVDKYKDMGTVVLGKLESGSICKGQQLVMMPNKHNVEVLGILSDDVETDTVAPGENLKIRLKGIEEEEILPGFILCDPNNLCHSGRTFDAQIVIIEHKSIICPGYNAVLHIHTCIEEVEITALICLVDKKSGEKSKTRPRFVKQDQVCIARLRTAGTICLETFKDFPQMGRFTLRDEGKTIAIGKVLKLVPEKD
Procedure: 150 μL of DMSO and the compounds (1 μM) were added, and the mixture was incubated in an incubator at 5% CO2 and 37° C. for 6 h. The cells were centrifuged, and the culture medium was discarded. PBS was added for washing and then discarded. The whole cell lysate was prepared using a RIPA lysis buffer containing a protease inhibitor cocktail and a phosphatase inhibitor, and incubated on ice for 30 min. The mixture was centrifuged, and the cell debris was discarded. The whole cell lysate supernatant was collected and transferred to a fresh EP tube. Samples were prepared using a loading buffer after a BCA protein assay. The samples were incubated in a metal bath at 100° C. for 10 min.
The samples were electrophoretically separated from proteins on a 4-20% precast gel (SDS-PAGE gel), transferred to a PVDF membrane, blocked with 5% NFDM/TBST for 1 h at room temperature, co-incubated overnight at 4° C. with the primary antibody, and co-incubated for 2 h at room temperature with the secondary antibody on the next day. The signals were detected on the […]™ imaging system.

Compound	IC50 (MV-4-11 cells; MV4-11, MV-4-11 cells, 72 h) [nM]	inhibition at 1 µM (GSPT1 protein; NB-4 cells, compound 1 μM, 6 h) [%]	IC50 (MV-4-11 cells; MV4-11, 72 h) [nM]	inhibition at 1 µM (GSPT1 protein; NB-4, 6 h) [%]
O=C1CCC(N2Cc3c(ccc(CNC(=O)c4ccc(N5CCCC5)cc4)c3F)C2=O)C(=O)N1 (stereo not shown) [FDAB-110]	< 1	> 80		
Cc1ccc(C(=O)NCc2ccc3c(c2F)CN(C2CCC(=O)NC2=O)C3=O)c(N)c1 (stereo not shown) [FDAB-111]	> 1000	< 25		
Cc1ccc(C(=O)NCc2ccc3c(c2F)CN(C2CCC(=O)NC2=O)C3=O)cc1N (stereo not shown) [FDAB-112]	10 to 100	> 80		
Nc1cc(C(=O)NCc2ccc3c(c2F)CN(C2CCC(=O)NC2=O)C3=O)ccc1Cl (stereo not shown) [FDAB-113]	10 to 100	> 80		
CS(=O)(=O)c1ccc(C(=O)NCc2ccc3c(c2F)CN(C2CCC(=O)NC2=O)C3=O)c(N)c1 (stereo not shown) [FDAB-114]	> 1000	< 25		
NS(=O)(=O)c1cc(C(=O)NCc2ccc3c(c2F)CN(C2CCC(=O)NC2=O)C3=O)ccc1Cl (stereo not shown) [FDAB-115]	> 1000	< 25		
O=C1CCC(N2Cc3c(ccc(CNC(=O)c4ccc(Cl)c(F)c4)c3F)C2=O)C(=O)N1 (stereo not shown) [FDAB-116]	1 to 10	> 80		
O=C1CCC(N2Cc3c(ccc(CNC(=O)c4ccc(Cl)cc4F)c3F)C2=O)C(=O)N1 (stereo not shown) [FDAB-117]	1 to 10	> 80		
O=C1CCC(N2Cc3c(ccc(CNC(=O)c4ccc(Cl)c(F)c4)c3Cl)C2=O)C(=O)N1 (stereo not shown) [FDAB-118]	10 to 100	50 to 80		
O=C1CCC(N2Cc3c(ccc(CNC(=O)c4ccc(Cl)cc4F)c3Cl)C2=O)C(=O)N1 (stereo not shown) [FDAB-119]	10 to 100	> 80		
Cc1ccc(C(=O)NCc2ccc3c(c2Cl)CN(C2CCC(=O)NC2=O)C3=O)cc1F (stereo not shown) [FDAB-122]	100 to 1000	< 25		
Cc1ccc(C(=O)NCc2ccc3c(c2Cl)CN(C2CCC(=O)NC2=O)C3=O)c(F)c1 (stereo not shown) [FDAB-123]	10 to 100	50 to 80		
CCN1C(=O)CCC(N2Cc3c(ccc(CNC(=O)c4ccc(Cl)cc4)c3F)C2=O)C1=O (stereo not shown) [FDAB-125]	> 1000	< 25		
CCOC(=O)CN1C(=O)CCC(N2Cc3c(ccc(CNC(=O)c4ccc(Cl)cc4)c3F)C2=O)C1=O (stereo not shown) [FDAB-126]	> 1000	< 25		
CC(C)OC(=O)N1C(=O)CCC(N2Cc3c(ccc(CNC(=O)c4ccc(Cl)cc4)c3F)C2=O)C1=O (stereo not shown) [FDAB-127]	> 1000	< 25		
CC(C)OC(=O)OCN1C(=O)CCC(N2Cc3c(ccc(CNC(=O)c4ccc(Cl)cc4)c3F)C2=O)C1=O (stereo not shown) [FDAB-128]			10 to 100	50 to 80
Cc1ccc(C(=O)NCc2ccc3c(c2F)CN(C2CCC(=O)N(COC(=O)OC(C)C)C2=O)C3=O)c(F)c1 (stereo not shown) [FDAB-130]			10 to 100	50 to 80
O=C(Cc1ccc(Cl)cc1Cl)NCc1ccc2c(c1F)CN(C1CCC(=O)NC1=O)C2=O (stereo not shown) [FDAB-131]	< 1	> 80		
CCCCOc1ccc(CC(=O)NCc2ccc3c(c2F)CN(C2CCC(=O)NC2=O)C3=O)cc1 (stereo not shown) [FDAB-132]	< 1	> 80		
O=C(Cc1cccc(-c2ccccc2)c1)NCc1ccc2c(c1F)CN(C1CCC(=O)NC1=O)C2=O (stereo not shown) [FDAB-133]	< 1	> 80		
O=C(Cc1c[nH]c2ccc(F)cc12)NCc1ccc2c(c1F)CN(C1CCC(=O)NC1=O)C2=O (stereo not shown) [FDAB-134]	1 to 10	50 to 80		
O=C(Cc1c[nH]c2cccc(Br)c12)NCc1ccc2c(c1F)CN(C1CCC(=O)NC1=O)C2=O (stereo not shown) [FDAB-135]	1 to 10	> 80		
O=C(Cc1cc2ccccc2s1)NCc1ccc2c(c1F)CN(C1CCC(=O)NC1=O)C2=O (stereo not shown) [FDAB-136]	1 to 10	> 80		
